Biological target: T1, α4β1 integrin (Homo sapiens, UniProt P05556+P13612)
T1 construct: endogenous in cells; host or cells: Ramos cells
Assay: Inhibition of adhesion of calcein AM-labeled Ramos cells to CS1 (fibronectin) peptide-conjugated ovalbumin
Assay type: cell-based
Conditions: Ramos; Table 2; compound at a concentration of 100 μM; read-out: % A (percent inhibition of cell adhesion)
Experimental: The ability of compounds of the present invention to inhibit binding is determined by a procedure in which a 26-amino acid peptide containing the CS1 sequence of fibronectin with an N-terminal Cys ([…]) was coupled to maleimide activated ovalbumin. Bovine serum albumin (BSA) and CS1 conjugated ovalbumin were coated onto 96-well polystyrene plates at 0.5 mg/ml in TBS (50 mM Tris, pH 7.5; 150 mM NaCl) at 4° C. for 16 hours. The plates were washed three times with TBS and blocked with TBS containing 3% BSA at room temperature for 4 hours. Blocked plates were washed three times in binding buffer (TBS; 1 mM MgCl2; 1 mM CaCl2; 1 mM MnCl2) prior to assay. Ramos cells fluorescently labeled with calcein AM were resuspended in binding buffer (10^7 cells/ml) and diluted 1:2 with same buffer with or without compound. The cells were added immediately to the wells (2.5×10^5 cells/well) and incubated for 30 minutes at 37° C. Following three washes with binding buffer, adherent cells were lysed and quantitated using a fluorometer. IC50 is defined as the dose required to give 50% inhibition. MS in Table 3 stands for Mass Spec. nd stands for not determined in the Tables. A stands for inhibition in Table 2, and the percent inhibition indicates the inhibition of cell adhesion when compound is included in the assay at a concentration of 100 μM. The lower the IC50 value and the greater the percentage of inhibition, the more efficient the compound is at prevention of cell adhesion.

T1 sequence (P13612 34-1032): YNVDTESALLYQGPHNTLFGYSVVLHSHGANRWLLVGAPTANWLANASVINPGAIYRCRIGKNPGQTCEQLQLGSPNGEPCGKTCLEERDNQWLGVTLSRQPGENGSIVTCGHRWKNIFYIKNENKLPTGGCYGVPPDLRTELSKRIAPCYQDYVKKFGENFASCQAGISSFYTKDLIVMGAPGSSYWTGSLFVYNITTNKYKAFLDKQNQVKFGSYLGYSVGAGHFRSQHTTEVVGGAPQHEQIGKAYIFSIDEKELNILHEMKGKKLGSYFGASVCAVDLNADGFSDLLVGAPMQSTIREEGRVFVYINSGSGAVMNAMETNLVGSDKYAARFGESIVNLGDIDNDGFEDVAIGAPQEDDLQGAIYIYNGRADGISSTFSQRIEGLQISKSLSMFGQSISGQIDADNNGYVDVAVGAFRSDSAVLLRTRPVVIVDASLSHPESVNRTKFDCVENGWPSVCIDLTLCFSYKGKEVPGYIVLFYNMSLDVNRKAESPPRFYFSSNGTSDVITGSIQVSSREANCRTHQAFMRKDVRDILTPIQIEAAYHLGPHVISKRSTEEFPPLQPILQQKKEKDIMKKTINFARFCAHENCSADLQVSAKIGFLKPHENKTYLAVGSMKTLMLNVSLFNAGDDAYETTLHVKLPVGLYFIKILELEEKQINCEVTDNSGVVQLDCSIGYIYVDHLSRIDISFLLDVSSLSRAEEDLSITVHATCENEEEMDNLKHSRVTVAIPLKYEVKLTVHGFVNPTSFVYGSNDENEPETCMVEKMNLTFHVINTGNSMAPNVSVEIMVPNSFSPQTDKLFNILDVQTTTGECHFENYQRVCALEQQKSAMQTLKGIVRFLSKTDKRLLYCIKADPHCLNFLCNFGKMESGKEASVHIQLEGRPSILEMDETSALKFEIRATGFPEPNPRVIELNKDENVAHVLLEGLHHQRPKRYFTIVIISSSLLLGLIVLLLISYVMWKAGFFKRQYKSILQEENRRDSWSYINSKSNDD
T1 sequence (P05556 21-798): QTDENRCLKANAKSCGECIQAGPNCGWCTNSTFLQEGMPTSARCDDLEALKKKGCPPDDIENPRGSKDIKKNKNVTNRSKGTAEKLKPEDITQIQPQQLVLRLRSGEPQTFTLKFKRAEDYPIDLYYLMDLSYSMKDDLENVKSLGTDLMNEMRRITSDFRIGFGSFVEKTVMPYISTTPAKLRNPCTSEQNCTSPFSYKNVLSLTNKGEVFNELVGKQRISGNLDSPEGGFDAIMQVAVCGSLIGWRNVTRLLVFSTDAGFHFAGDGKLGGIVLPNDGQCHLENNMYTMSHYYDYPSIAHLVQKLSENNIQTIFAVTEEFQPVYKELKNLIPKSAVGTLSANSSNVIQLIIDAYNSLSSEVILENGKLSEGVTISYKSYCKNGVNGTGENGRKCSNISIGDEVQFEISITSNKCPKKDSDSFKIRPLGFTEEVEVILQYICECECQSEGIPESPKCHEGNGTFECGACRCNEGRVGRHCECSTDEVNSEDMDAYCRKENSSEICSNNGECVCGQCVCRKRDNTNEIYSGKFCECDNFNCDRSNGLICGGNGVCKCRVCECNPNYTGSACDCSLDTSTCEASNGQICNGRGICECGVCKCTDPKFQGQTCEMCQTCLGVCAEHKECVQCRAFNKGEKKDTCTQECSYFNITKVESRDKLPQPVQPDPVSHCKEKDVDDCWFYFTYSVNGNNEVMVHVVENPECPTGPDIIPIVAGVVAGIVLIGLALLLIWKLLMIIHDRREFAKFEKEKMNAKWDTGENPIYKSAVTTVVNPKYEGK

Row | inhibition at 100 µM | Compound
1 | 100% | CCCC[C@@H](C(=O)N[C@@H](CC(=O)O)c1ccc2c(c1)OCO2)N1CCCN(Cc2cccs2)C1=O [(3S)-3-(1,3-benzodioxol-5-yl)-3-(((2S)-2-(2-oxo-3-(2-thienylmethyl)tetrahydro-1(2H)-pyrimidinyl)hexanoyl)amino)propanoic acid]
2 | 100% | CCCC[C@@H](C(=O)N[C@@H](CC(=O)O)c1ccc2c(c1)OCO2)N1CCC(c2cccs2)N(Cc2cccs2)C1=O (stereo partly drawn) [(3S)-3-(1,3-benzodioxol-5-yl)-3-(((2S)-2-(2-oxo-4-(2-thienyl)-3-(2-thienylmethyl)tetrahydro-1(2H)-pyrimidinyl)hexanoyl)amino)propanoic acid]

Same assay, conditions: Table 1; Ramos cell adhesion to CS1-conjugated ovalbumin, 30 minutes at 37° C.

Row | IC50 | Compound
3 | 7 nM | CCCCC(C(=O)N[C@@H](CC(=O)O)c1ccc2c(c1)OCO2)n1cc(C)cc(Cc2ccccc2)c1=O (mixture of isomers) [Compound 8, (3S)-3-(1,3-benzodioxol-5-yl)-3-((2R,S)-2-(3-benzyl-5-methyl-2-oxo-1(2H)-pyridinyl)hexanoylamino)propanoic acid]
4 | 40 nM | CCCCC(C(=O)N[C@@H](CC(=O)O)c1ccc2c(c1)CCO2)n1cc(C)cc(Cc2ccccc2)c1=O (mixture of isomers) [Compound 12, (3S)-3-((2R,S)-2-(3-benzyl-5-methyl-2-oxo-1(2H)-pyridinyl)hexanoylamino)-3-(2,3-dihydro-1-benzofuran-5-yl)propanoic acid]
5 | 70 nM | CCCCC(C(=O)N[C@@H](CC(=O)O)c1ccc(C)cc1)n1cc(C)cc(Cc2ccccc2)c1=O (mixture of isomers) [Compound 13, (3S)-3-((2R,S)-2-(3-benzyl-5-methyl-2-oxo-1(2H)-pyridinyl)hexanoylamino)-3-(4-methylphenyl)propanoic acid]
6 | 150 nM | CCCCC(C(=O)N[C@@H](CC(=O)O)c1ccc(F)cc1)n1cc(C)cc(Cc2ccccc2)c1=O (mixture of isomers) [Compound 14, (3S)-3-((2R,S)-2-(3-benzyl-5-methyl-2-oxo-1(2H)-pyridinyl)hexanoylamino)-3-(4-fluorophenyl)propanoic acid]
7 | 30 nM | CCCCC(C(=O)N[C@@H](CC(=O)O)c1ccc2c(c1)OCO2)n1cc(C)cc(Cc2ccc(OC)cc2)c1=O (mixture of isomers) [Compound 15, (3S)-3-(1,3-benzodioxol-5-yl)-3-((2R,S)-2-(3-(4-methoxybenzyl)-5-methyl-2-oxo-1(2H)-pyridinyl)hexanoylamino)propanoic acid]
8 | 35 nM | CCCCC(C(=O)N[C@@H](CC(=O)O)c1ccc2c(c1)OCO2)n1cc(C)cc(Cc2ccc(C)cc2)c1=O (mixture of isomers) [Compound 16, (3S)-3-(1,3-benzodioxol-5-yl)-3-((2R,S)-2-(3-(4-methylbenzyl)-5-methyl-2-oxo-1(2H)-pyridinyl)hexanoylamino)propanoic acid]
9 | 60 nM | CCCCC(C(=O)N[C@@H](CC(=O)O)c1ccc2c(c1)OCO2)n1cc(C)cc(Cc2ccc(F)cc2)c1=O (mixture of isomers) [Compound 17, (3S)-3-(1,3-benzodioxol-5-yl)-3-((2R,S)-2-(3-(4-fluorobenzyl)-5-methyl-2-oxo-1(2H)-pyridinyl)hexanoylamino)propanoic acid]
10 | 6 nM | CCCCC(C(=O)N[C@@H](CC(=O)O)c1ccc2c(c1)OCO2)n1cc(C)cc(Cc2cccc(Cl)c2)c1=O (mixture of isomers) [Compound 19, (3S)-3-(1,3-benzodioxol-5-yl)-3-((2R,S)-2-(3-(3-chlorobenzyl)-5-methyl-2-oxo-1(2H)-pyridinyl)hexanoylamino)propanoic acid]

Same assay, conditions: Table 2; Ramos cell adhesion to CS1-conjugated ovalbumin, 30 minutes at 37° C.

Row | IC50 | Compound
11 | 5 nM | CCCC[C@@H](C(=O)N[C@@H](CC(=O)O)c1ccc2c(c1)OCO2)N1CCCN(Cc2cccs2)C1=O [(3S)-3-(1,3-benzodioxol-5-yl)-3-(((2S)-2-(2-oxo-3-(2-thienylmethyl)tetrahydro-1(2H)-pyrimidinyl)hexanoyl)amino)propanoic acid]
12 | 50 nM | CCCC[C@@H](C(=O)N[C@@H](CC(=O)O)c1ccc2c(c1)OCO2)N1CCC(c2cccs2)N(Cc2cccs2)C1=O (stereo partly drawn) [(3S)-3-(1,3-benzodioxol-5-yl)-3-(((2S)-2-(2-oxo-4-(2-thienyl)-3-(2-thienylmethyl)tetrahydro-1(2H)-pyrimidinyl)hexanoyl)amino)propanoic acid]

Same assay, conditions: Table 3; Ramos cell adhesion to CS1-conjugated ovalbumin, 30 minutes at 37° C.

Row | Compound | IC50
13 | CCCCC(C(=O)N[C@@H](CC(=O)O)c1ccc2c(c1)OCO2)n1cc(Cc2ccccc2)ccc1=O (stereo partly drawn) [(3S)-3-(1,3-Benzodioxol-5-yl)-3-({2-[2-oxo-5-(phenylmethyl)-1(2H)-pyridinyl]hexanoyl}amino)propanoic acid] | 40 nM
14 | O=C(O)C[C@H](NC(=O)C1(n2cccc(Cc3ccccc3)c2=O)CCCCC1)c1ccc2c(c1)OCO2 [(3S)-3-(1,3-Benzodioxol-5-yl)-3-[({1-[2-oxo-3-(phenylmethyl)-1(2H)-pyridinyl]cyclohexyl}carbonyl)amino]propanoic acid] | 50000 nM
15 | O=C(O)C[C@H](NC(=O)Cn1cccc(Cc2ccccc2)c1=O)c1ccc2c(c1)OCO2 [(3S)-3-(1,3-benzodioxol-5-yl)-3-({2-[2-oxo-3-(phenylmethyl)-1(2H)-pyridinyl]acetyl}amino)propanoic acid] | 450 nM
16 | CCC(C(=O)N[C@@H](CC(=O)O)c1ccc2c(c1)OCO2)n1cccc(Cc2ccccc2)c1=O (stereo partly drawn) [(3S)-3-(1,3-benzodioxol-5-yl)-3-({2-[2-oxo-3-(phenylmethyl)-1(2H)-pyridinyl]butanoyl}amino)propanoic acid] | 30 nM
17 | CCCC(C(=O)N[C@@H](CC(=O)O)c1ccc2c(c1)OCO2)n1cccc(Cc2ccccc2)c1=O (stereo partly drawn) [(3S)-3-(1,3-benzodioxol-5-yl)-3-({2-[2-oxo-3-(phenylmethyl)-1(2H)-pyridinyl]pentanoyl}amino)propanoic acid] | 60 nM
18 | CCCCC(C(=O)N[C@@H](CC(=O)O)c1ccc2c(c1)OCO2)n1c(=O)c(Cc2ccccc2)cc2ccccc21 (stereo partly drawn) [(3S)-3-(1,3-benzodioxol-5-yl)-3-({2-[2-oxo-3-(phenylmethyl)-1(2H)-quinolinyl]hexanoyl}amino)propanoic acid] | 2000 nM
19 | O=C(O)C[C@H](NC(=O)Cn1c(=O)n(Cc2ccccc2)c2ccccc21)c1ccc2c(c1)OCO2 [(3S)-3-(1,3-benzodioxol-5-yl)-3-({2-[2-oxo-3-(phenylmethyl)-2,3-dihydro-1H-benzimidazol-1-yl]acetyl}amino)propanoic acid] | 200 nM
20 | CCCCC(C(=O)N[C@@H](CC(=O)O)c1ccc2c(c1)OCO2)n1c(=O)n(Cc2ccccc2)c2ccccc21 (stereo partly drawn) [(3S)-3-(1,3-benzodioxol-5-yl)-3-({2-[2-oxo-3-(phenylmethyl)-2,3-dihydro-1H-benzimidazol-1-yl]hexanoyl}amino)propanoic acid] | 70 nM
21 | CCCCC(C(=O)N[C@@H](CC(=O)O)c1ccc2c(c1)OCO2)n1ccn(Cc2ccccc2)c1=O (stereo partly drawn) [(3S)-3-(1,3-benzodioxol-5-yl)-3-({2-[2-oxo-3-(phenylmethyl)-2,3-dihydro-1H-imidazol-1-yl]hexanoyl}amino)propanoic acid] | 60 nM

Continued, values first:

Row | IC50 | Compound
22 | 400 nM | CCCCC(C(=O)N[C@@H](CC(=O)O)c1ccc2c(c1)OCO2)N1C(=O)N(Cc2ccccc2)Cc2ccccc21 (stereo partly drawn) [(3S)-3-(1,3-benzodioxol-5-yl)-3-({2-[2-oxo-3-(phenylmethyl)-3,4-dihydro-1(2H)-quinazolinyl]hexanoyl}amino)propanoic acid]
23 | 1300 nM | CCCCC(C(=O)N[C@@H](CC(=O)O)c1ccc2c(c1)OCO2)n1cccc(NCc2cccs2)c1=O (stereo partly drawn) [(3S)-3-(1,3-benzodioxol-5-yl)-3-({2-[2-oxo-3-[(2-thiophenylmethyl)amino]-1(2H)-pyridinyl]hexanoyl}amino)propanoic acid]
24 | > 100000 nM | O=C(O)C[C@H](NC(=O)Cc1cccc(Oc2ccccc2)c1)c1ccc2c(c1)OCO2 [(3S)-3-(1,3-benzodioxol-5-yl)-3-({2-[3-(phenyloxy)phenyl]acetyl}amimo)-propanoic acid]
25 | 10 nM | CCCCC(C(=O)N[C@@H](CC(=O)O)c1ccc2c(c1)OCO2)n1cc(C)cc(Cc2ccccc2Cl)c1=O (stereo partly drawn) [(3S)-3-(1,3-benzodioxol-5-yl)-3-({2-[3-[(2-chlorophenyl)methyl]-5-methyl-2-oxo-1(2H)-pyridinyl]hexanoyl}amino)propanoic acid]
26 | 60 nM | CCCCC(C(=O)N[C@@H](CC(=O)O)c1ccc2c(c1)OCO2)n1nc(C)cc(Cc2ccccc2)c1=O (stereo partly drawn) [(3S)-3-(1,3-benzodioxol-5-yl)-3-({2-[3-methyl-6-oxo-5-(phenylmethyl)-1(6H)-pyridazinyl]hexanoyl}amino)propanoic acid]
27 | 100 nM | CCCC[C@@H](C(=O)N[C@@H](CC(=O)O)c1ccc2c(c1)OCO2)n1c(=O)c2ccccc2n(Cc2ccccc2)c1=O [(3S)-3-(1,3-benzodioxol-5-yl)-3-({(2S)-2-[2,4-dioxo-1-(phenylmethyl)-1,4-dihydro-3(2H)-quinazolinyl]hexanoyl}amino)propanoic acid]

Same assay, conditions: Table 4; Ramos cell adhesion to CS1-conjugated ovalbumin, 30 minutes at 37° C.

Row | IC50 | Compound
28 | > 10000 nM | CCCCC(C(=O)N[C@@H](C(=O)O)c1ccccc1)n1cc(C)cc(Cc2ccccc2)c1=O (stereo partly drawn) [(2R)-2-({2-[5-methyl-2-oxo-3-(phenylmethyl)-1(2H)-pyridinyl]hexanoyl}amino)-2-phenylethanoic acid]
29 | 5000 nM | CCCCC(C(=O)N[C@H](Cc1ccccc1)C(=O)O)n1cc(C)cc(Cc2ccccc2)c1=O (stereo partly drawn) [(2R)-2-({2-[5-methyl-2-oxo-3-(phenylmethyl)-1(2H)-pyridinyl]hexanoyl}amino)-3-phenylpropanoic acid]
30 | > 10000 nM | CCCCC(C(=O)N[C@@H](Cc1ccccc1)C(=O)O)n1cc(C)cc(Cc2ccccc2)c1=O (stereo partly drawn) [(2S)-2-({2-[5-methyl-2-oxo-3-phenylmethyl)-1(2H)-pyridinyl]hexanoyl}amino)-3-phenylpropanoic acid]
